# Measured values published in patent publication US8663616B2, “Enzymatic peracid generation for use in oral care products” (E I du Pont de Nemours and Company, priority 2010, dated 2014).
# Ends that are not written are not given here. * marks the point of attachment. Biotin = O=C1N[C@H]2[C@H](CS[C@H]2CCCCC(=O)*)N1
# Legend:
# [1] = 20 μM biotin-labelled peptide, 30 min 37° C.; streptavidin-HRP, QuantaBlu; three replicate enamel substrates; no peptide 494.2
# Method: A total of 11 synthetic peptides were manufactured using sequences obtained from Table 3. Peptides were obtained from SynBioSci Corp. (Livermore, Calif.) with biotin labeled lysine at the C-terminus.
# Enamel substrates were prepared as described in Example 2. Each substrate was incubated for 1 h at room temperature (˜22° C.) with 1 mL of blocking buffer, consisting of 1 mg/mL BSA in PBST (Pierce BUPH™ #28372 with 0.1% TWEEN® 20). The blocking buffer was removed by aspirating the liquid out of each well. The tube was rinsed 2 times with wash buffer consisting of PBST. The wells were filled with 500 μL of 20 μM peptide solution which was prepared by diluting in blocking buffer. The samples were incubated for 30 min with slow shaking at 37° C. The non-binding peptide was removed by washing 6 times with PBST. Then, 500 μL of horseradish peroxidase/streptavidin conjugate (Pierce #22127), diluted 1:1000 in PBST, was added and incubated for 1 h at room temperature (˜22° C.). The conjugate solution was removed and the enamel blocks were washed 4 times with PEST.
# Each enamel substrate was removed from the well and washed again in a 15-mL test tube with 10 mL of PBST. Each enamel substrate was then mounted in a clean well plate with only the enamel surface exposed. 200 μL of a QUANTABLU™ Substrate Solution (Thermo-Fisher, Rockford, Ill.; #1856187) was added directly to each enamel block. The solution was incubated for 20 min at room temperature. 200 μL of QUANTABLU™ Stop Solution (Thermo Fisher) was added. After mixing, 200 μL of solution was transferred to a clean 96-well black microcentrifuge plate. The fluorescence of the plate was measured with 325 nm excitation and 420 nm emission with no cutoff wavelength using a microplate spectrophotometer (Molecular Devices, Sunnyvale, Calif.). The analysis of the 11 pellicle/enamel binding candidates was compared to a known binding peptide, DenP03. Each sequence was tested with three replicate enamel substrates.
# [2] = molecular target: T1, Wild Type (SEQ ID NO: 16) (Thermotoga maritima, UniProt Q9WXT2); experiment: Maximum peracetic acid from ester substrates with wild type perhydrolase (Example 14); assay type: biochemical; settings: 100 mM ester, 60 mM H2O2, 40 ppm enzyme, 95 mM phosphate pH 7.2, 37° C.
# T1 construct: made in house; host or cells: E. coli
# T1 sequence (Q9WXT2 1-325): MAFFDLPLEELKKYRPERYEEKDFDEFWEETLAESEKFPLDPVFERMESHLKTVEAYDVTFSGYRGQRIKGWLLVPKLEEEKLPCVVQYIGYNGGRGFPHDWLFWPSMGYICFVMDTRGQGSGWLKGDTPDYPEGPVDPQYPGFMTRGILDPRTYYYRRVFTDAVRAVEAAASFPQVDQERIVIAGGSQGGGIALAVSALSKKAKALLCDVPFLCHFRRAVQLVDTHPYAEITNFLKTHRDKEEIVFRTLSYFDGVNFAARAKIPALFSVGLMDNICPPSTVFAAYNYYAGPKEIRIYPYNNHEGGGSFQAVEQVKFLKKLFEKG
# Method: (§1) To test various enzymes against an ester substrate, it was convenient to run up to 4 reactions simultaneously by staggering the beginning of each individual reaction by 0.5-1 min. Each individual reaction was performed in a glass vessel (height: 76 mm; o.d.: 33 mm; i.d.: 24 mm) equipped with a magnetic stirring bar. Four reaction vessels were banded together and kept at constant temperature in a jacketed one-liter, stainless steel, tempering beaker (KGW IsoTherm, # TSS-G 1000W) with circulating water controlled by a Thermo NesLab recirculation bath (Model # RTE-7 Digital One). Buffer (6 mL, 100 mM sodium phosphate buffer, pH 7.2) was added to each reaction vessel and allowed to equilibrate to 37° C. The ester substrate of interest was added to achieve 100 mM concentration. […] To follow the production of peracetic acid, 80 μL samples from each reaction were removed at specific intervals from 1 to 15 minutes. The sample was immediately quenched in a microfuge filter tube (NanoSep 30K VWR cat #82031-354) containing a volume and concentration of phosphoric acid solution that was sufficient to stop the enzymatic reaction (by lowering the pH between 2 and 3) and to dilute the sample for convenient HPLC analyses. The acid-quenched samples were centrifuged for 5 minutes to remove any particulates.
# [3] = molecular target: T2, C277T/R296P (SEQ ID NO: 476) (Thermotoga maritima, UniProt Q9WXT2, C277T/R296P); assay type: biochemical; settings: 100 mM ester, 60 mM H2O2, 40 ppm enzyme, 95 mM phosphate pH 7.2, 37° C.
# T2 construct: made in house; host or cells: E. coli
# T2 sequence (Q9WXT2 whole entry C277T/R296P): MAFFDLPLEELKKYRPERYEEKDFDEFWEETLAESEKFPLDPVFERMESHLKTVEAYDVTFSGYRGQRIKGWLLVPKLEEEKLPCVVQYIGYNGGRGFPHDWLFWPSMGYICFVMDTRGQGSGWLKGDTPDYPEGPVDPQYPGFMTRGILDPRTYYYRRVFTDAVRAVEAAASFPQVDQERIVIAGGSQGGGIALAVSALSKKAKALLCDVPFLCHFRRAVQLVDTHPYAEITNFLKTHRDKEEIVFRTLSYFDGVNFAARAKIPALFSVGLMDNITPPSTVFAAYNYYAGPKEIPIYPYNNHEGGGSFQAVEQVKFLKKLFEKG
# Method: as §1
# C277T (SEQ ID NO: 437) = molecular target: T3, C277T (SEQ ID NO: 437) (Thermotoga maritima, UniProt Q9WXT2, C277T); assay type: biochemical; settings: 100 mM ester, 60 mM H2O2, 40 ppm enzyme, 95 mM phosphate pH 7.2, 37° C.
# T3 construct: made in house; host or cells: E. coli
# T3 sequence (Q9WXT2 whole entry C277T): as the sequence (Q9WXT2 whole entry C277T/R296P) above, with P296R counted along it
# Method: as §1
# [4] = Bleaching of coffee-tea stained bovine enamel with EZ-1 and various ester substrates (Example 15); set-up: Whiteness Index Treatment 0 / Whiteness Index Treatment 1 / Whiteness Index Treatment 2 / Whiteness Index Treatment 3 / ΔWI: scale not given here; settings: for Whiteness Index Treatment 1: after 1 x 30 min treatment; for Whiteness Index Treatment 2: after 2 x 30 min treatments; for Whiteness Index Treatment 3: after 3 x 30 min treatments; for Whiteness Index Treatment 0: before treatment, 40 ppm EZ-1, 100 mM substrate, H2O2 100 mM (TA), 360 mM (PGDA, SOC), 60 mM (GPA), pH 7.2, control 9% H2O2 pH 5.3 without enzyme; for change in whiteness index (in words): enzymatically generated peracetic acid with EZ-1, each successive treatment; for ΔWI: treatment 0 to treatment 3
# Method: The optimal conditions used for the generation of peracetic acid with each substrate were derived from the studies in Example 14 and are listed below as follows:
# Bovine enamel incisors were prepared as indicated in Example 1. The stained enamel blocks were placed in a 24 well plate with the dentin side facing down and hydrated overnight in phosphate buffer, pH 7.2. Prior to treatment, a color measurement of each tooth was performed using a Konica-Minolta 2600d spectrophotometer and whiteness index was calculated as specified in Example 1.
# Each enzyme solution was prepared in a 1.5-mL microfuge tube (Eppendorf, #2243102-1) and 1 mL of the solution was immediately transferred to the 24 well plate containing the pre-hydrated teeth. The control samples consisted of 100 mM phosphate buffer, pH 7.2 and 9% H2O2 in 100 mM citrate/phosphate buffer, pH 5.3. The teeth were incubated at room temperature for 30 minutes, removed, rinsed with 100 mM phosphate, pH 7.2 and a color measurement was taken. The teeth were placed back into the 24 well plate at which time fresh enzyme solutions were prepared and added to each well. This process was repeated for a total of 3 whitening treatments; 30 min per treatment (Table 22).
# C277S (SEQ ID NO: 424) = molecular target: T4, C277S (SEQ ID NO: 424) (Thermotoga maritima, UniProt Q9WXT2, C277S); assay type: biochemical; settings: 100 mM ester, 60 mM H2O2, 40 ppm enzyme, 95 mM phosphate pH 7.2, 37° C.
# T4 construct: made in house; host or cells: E. coli
# T4 sequence (Q9WXT2 whole entry C277S): as the sequence (Q9WXT2 whole entry C277T/R296P) above, with T277S, P296R counted along it
# Method: as §1
compound,measurement,setting,value
SNATMYNIQSHSHHQK (Biotin) [DenP301],Avg Fluorescence 325/420,[1],1098.4
HDPYTMKSALRQSTSK(Biotin) [DenP303],Avg Fluorescence 325/420,[1],948.6
TKPPRTPTANTSRPHHNFK(Biotin) [DenP308],Avg Fluorescence 325/420,[1],12302.6
ANSGFPIWLQKYPWSEVQQEK (Biotin) [DenP309],Avg Fluorescence 325/420,[1],1729.5
DTIHPNKMKSPSSPLK (Biotin) [DenP305],Avg Fluorescence 325/420,[1],581.2
QAAQVHMMQHSRPTTK (Biotin) [DenP302],Avg Fluorescence 325/420,[1],608.6
CC(=O)OCC(COC(C)=O)OC(C)=O [Triacetin],"Maximum Peracetic Acid (PAA) (ppm), Wild Type (SEQ ID NO: 16)",[2],937 ppm
same,"Maximum Peracetic Acid (PAA) (ppm), C277T/R296P (SEQ ID NO: 476)",[3],2291 ppm
same,"Maximum Peracetic Acid (PAA) (ppm), C277T (SEQ ID NO: 437)",C277T (SEQ ID NO: 437),2311 ppm
same,Whiteness Index Treatment 1,[4],−108.7
same,Whiteness Index Treatment 2,[4],−86.7
same,Whiteness Index Treatment 3,[4],−86.1
same,Whiteness Index Treatment 0,[4],−189.9
same,change in whiteness index (in words),[4],significant change in whiteness index
same,ΔWI,[4],103.8
same,"Maximum Peracetic Acid (PAA) (ppm), C277S (SEQ ID NO: 424)",C277S (SEQ ID NO: 424),1977 ppm
GSNNHLPSTVPRLTVK(Biotin) [DenP306],Avg Fluorescence 325/420,[1],1300.0
GMGSEVLSQYPQAPVGK(Biotin) [DenP312],Avg Fluorescence 325/420,[1],2301.0
CC(=O)OC[C@H]1O[C@@](COC(C)=O)(O[C@H]2O[C@H](COC(C)=O)[C@@H](OC(C)=O)[C@H](OC(C)=O)[C@H]2OC(C)=O)[C@@H](OC(C)=O)[C@@H]1OC(C)=O [Sucrose octaacetate],"Maximum Peracetic Acid (PAA) (ppm), Wild Type (SEQ ID NO: 16)",[2],304 ppm
same,"Maximum Peracetic Acid (PAA) (ppm), C277T/R296P (SEQ ID NO: 476)",[3],501 ppm
same,"Maximum Peracetic Acid (PAA) (ppm), C277T (SEQ ID NO: 437)",C277T (SEQ ID NO: 437),493 ppm
same,Whiteness Index Treatment 1,[4],−135.2
same,Whiteness Index Treatment 2,[4],−135.9
same,Whiteness Index Treatment 3,[4],−128.8
same,Whiteness Index Treatment 0,[4],−172.8
same,change in whiteness index (in words),[4],significant change in whiteness index
same,ΔWI,[4],44.0
same,"Maximum Peracetic Acid (PAA) (ppm), C277S (SEQ ID NO: 424)",C277S (SEQ ID NO: 424),215 ppm
ATPSQHRYGLMQNHAPNGIEK(Biotin) [DenP311],Avg Fluorescence 325/420,[1],795.3
"TTYHYKNIYQESYQQRNPAVK (Biotin) [DenP03, reference compound]",Avg Fluorescence 325/420,[1],3448.3
CC(=O)OCC(C)OC(C)=O (stereo not drawn) [Propylene glycol diacetate],"Maximum Peracetic Acid (PAA) (ppm), Wild Type (SEQ ID NO: 16)",[2],780 ppm
same,"Maximum Peracetic Acid (PAA) (ppm), C277T/R296P (SEQ ID NO: 476)",[3],1202 ppm
same,"Maximum Peracetic Acid (PAA) (ppm), C277T (SEQ ID NO: 437)",C277T (SEQ ID NO: 437),1245 ppm
same,Whiteness Index Treatment 1,[4],−108.0
same,Whiteness Index Treatment 2,[4],−80.9
same,Whiteness Index Treatment 3,[4],−80.1
same,Whiteness Index Treatment 0,[4],−181.4
same,change in whiteness index (in words),[4],significant change in whiteness index
same,ΔWI,[4],101.3
same,"Maximum Peracetic Acid (PAA) (ppm), C277S (SEQ ID NO: 424)",C277S (SEQ ID NO: 424),1128 ppm
DLGTFPNRTLKMAAHK(Biotin) [DenP304],Avg Fluorescence 325/420,[1],642.8
"CC(=O)OCCCCCOC(C)=O [1,5-pentanediol diacetate]","Maximum Peracetic Acid (PAA) (ppm), Wild Type (SEQ ID NO: 16)",[2],435 ppm
same,"Maximum Peracetic Acid (PAA) (ppm), C277T/R296P (SEQ ID NO: 476)",[3],364 ppm
same,"Maximum Peracetic Acid (PAA) (ppm), C277T (SEQ ID NO: 437)",C277T (SEQ ID NO: 437),484 ppm
same,"Maximum Peracetic Acid (PAA) (ppm), C277S (SEQ ID NO: 424)",C277S (SEQ ID NO: 424),335 ppm
SNPIPNFAHDLRHSKYNSK (Biotin) [DenP307],Avg Fluorescence 325/420,[1],861.6
CC(=O)OC[C@H]1O[C@H](OC(C)=O)[C@H](OC(C)=O)[C@@H](OC(C)=O)[C@@H]1OC(C)=O [α-D-glucose pentaacetate],"Maximum Peracetic Acid (PAA) (ppm), Wild Type (SEQ ID NO: 16)",[2],1188 ppm
same,"Maximum Peracetic Acid (PAA) (ppm), C277T/R296P (SEQ ID NO: 476)",[3],1678 ppm
same,"Maximum Peracetic Acid (PAA) (ppm), C277T (SEQ ID NO: 437)",C277T (SEQ ID NO: 437),2542 ppm
same,Whiteness Index Treatment 1,[4],−128.7
same,Whiteness Index Treatment 2,[4],−105.3
same,Whiteness Index Treatment 3,[4],−95.9
same,Whiteness Index Treatment 0,[4],−225.2
same,change in whiteness index (in words),[4],significant change in whiteness index
same,ΔWI,[4],129.3
same,"Maximum Peracetic Acid (PAA) (ppm), C277S (SEQ ID NO: 424)",C277S (SEQ ID NO: 424),2091 ppm
"CC(=O)O[C@@H]1O[C@H](CO)[C@@H](OC(C)=O)[C@H](OC(C)=O)[C@H]1OC(C)=O [β-D-glucopyranose,1,2,3,4-tetraacetate]","Maximum Peracetic Acid (PAA) (ppm), Wild Type (SEQ ID NO: 16)",[2],2129 ppm
same,"Maximum Peracetic Acid (PAA) (ppm), C277T/R296P (SEQ ID NO: 476)",[3],2235 ppm
same,"Maximum Peracetic Acid (PAA) (ppm), C277T (SEQ ID NO: 437)",C277T (SEQ ID NO: 437),2225 ppm
same,"Maximum Peracetic Acid (PAA) (ppm), C277S (SEQ ID NO: 424)",C277S (SEQ ID NO: 424),2309 ppm
